Among the test systems are A498 renal; ACHN renal; COLO 205 colon; HCT-15 colon; K-562 leukemia; PC-3 prostate; RPMI-8226 leukemia; SF-295 CNS; UACC-257 melanoma.
Holding throughout (experiment): inhibition of tumour cell growth, NCI panel, 48 h

Molecules are shown by their SMILES. “And” between values parts separate entries of the source, which are not always exact repeats. Equal entries are not always repeated.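 Results reflect a 48-hour exposure of cells in 96-well plates to compound at five concentrations. The concentration for 50% growth inhibition is given as GI50. TGI denotes the concentration required for complete inhibition of growth.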

As for `O=C(O)c1nc2ccccc2nc1Nc1ccc(Cl)c(Cl)c1`, the TGI was 41.6 µM in the assay on A498 renal; greater than 100 µM in the assay on ACHN renal; 82.6 µM with COLO 205 colon; 36.1 µM in the assay on HCT-15 colon; greater than 100 µM in the assay with K-562 leukemia; greater than 100 µM with PC-3 prostate. Further, the TGI with RPMI-8226 leukemia is greater than 100 µM; with SF-295 CNS, 69.8 µM; with UACC-257 melanoma, greater than 100 µM.

Regarding `O=C(Cc1ccccc1)NN1C(=O)C(Cl)C1c1ccccc1Cl` (stereo not drawn), the TGI in the assay on A498 renal is greater than 100 µM; with ACHN renal it was greater than 100 µM; with COLO 205 colon, greater than 100 µM; with HCT-15 colon, greater than 100 µM; in the assay with K-562 leukemia it was greater than 100 µM; with RPMI-8226 leukemia, 51.1 µM. For the same molecule, the TGI in the assay on SF-295 CNS and in the assay on UACC-257 melanoma was greater than 100 µM in each case.

On to `Cc1cc2ncn(-c3nc4ccccc4nc3C(C#N)S(C)(=O)=O)c2cc1C` (stereo not drawn), for which the TGI in the assay on A498 renal, with ACHN renal, with COLO 205 colon, with HCT-15 colon, in the assay on K-562 leukemia and with RPMI-8226 leukemia was greater than 100 µM each time. This molecule also had a TGI in the assay on UACC-257 melanoma greater than 100 µM.

For `N#CCCn1[nH]c(=O)c(Cl)c(Cl)c1=O`, the TGI in the assay on A498 renal is 41.2 µM; with ACHN renal it was 30.7 µM; with COLO 205 colon it was 57.3 µM; with HCT-15 colon, 24.6 µM; in the assay on K-562 leukemia, 28.1 µM; in the assay with RPMI-8226 leukemia, 37.5 µM. The values for the TGI with SF-295 CNS and in the assay with UACC-257 melanoma were 32.1 µM and 37.7 µM, respectively.

For `COC(=O)C(=O)C(C(=O)OC)C(=O)C(=O)Nc1c(C)cccc1C` (stereo not drawn), the TGI in the assay with A498 renal, in the assay with ACHN renal, in the assay on COLO 205 colon, in the assay with HCT-15 colon, in the assay on K-562 leukemia and in the assay with RPMI-8226 leukemia was greater than 100 µM each time. Also, the TGI with SF-295 CNS and in the assay on UACC-257 melanoma was greater than 100 µM in each case.

Turning to `COc1cc2c(c(OC)c1OC)-c1ccc(SC)c(=O)cc1[C@@H](NCc1ccc(F)cc1)CC2`, the TGI in the assay on A498 renal is 0.0265 µM; in the assay with ACHN renal, 75 µM and 49.2 µM; with COLO 205 colon, less than 0.0075 µM; with HCT-15 colon, 7.64 µM; with K-562 leukemia, 75 µM and > 100 µM; in the assay on RPMI-8226 leukemia it was 31.2 µM. The TGI in the assay with SF-295 CNS was 22 µM and > 100 µM; in the assay with UACC-257 melanoma, 44.1 µM and 55.7 µM.

On to `CC(C)N(C(=O)C12C3C4C1C1C2C3C41C#N)C(C)C` (stereo not drawn), for which the TGI in the assay with A498 renal was greater than 100 µM; in the assay with ACHN renal, greater than 100 µM; with COLO 205 colon, greater than 100 µM; in the assay on HCT-15 colon, greater than 100 µM; in the assay with K-562 leukemia it was greater than 100 µM; in the assay on RPMI-8226 leukemia, greater than 68.1 µM. For the same molecule, the TGI in the assay on SF-295 CNS and with UACC-257 melanoma was greater than 100 µM each time.

For `CC(C)(C)OC(=O)NC1CCCC1C(=O)C1=CCCC1` (stereo not drawn), the TGI with A498 renal, in the assay with ACHN renal, in the assay with COLO 205 colon, in the assay with HCT-15 colon, in the assay on K-562 leukemia and in the assay with PC-3 prostate was greater than 100 µM in each case. The TGI with RPMI-8226 leukemia and in the assay with UACC-257 melanoma was greater than 100 µM in each case.

With `CN(C)CCNc1ccc2ncn3c4ccccc4c(=O)c1c23`, the TGI in the assay on A498 renal is 21.1 µM; in the assay with ACHN renal it was 10.5 µM; in the assay on COLO 205 colon it was 4.03 µM; with HCT-15 colon, 13.9 µM; with K-562 leukemia, greater than 100 µM; with RPMI-8226 leukemia it was greater than 100 µM. Besides, the TGI was 13.4 µM in the assay with SF-295 CNS and 11.5 µM with UACC-257 melanoma.

As to `CC(C)(C)N=CN1C=Cc2nc3ccccc3cc2C1`, the TGI with A498 renal, with ACHN renal, with COLO 205 colon, in the assay with HCT-15 colon, in the assay on K-562 leukemia and in the assay on SF-295 CNS was greater than 100 µM throughout. Besides, the TGI in the assay with UACC-257 melanoma is greater than 100 µM.

With `CC(C)c1cccc(C(C)C)c1NC(=O)C(=O)Cc1nc2ccc([N+](=O)[O-])cc2[nH]c1=O`, the TGI in the assay with A498 renal is greater than 100 µM; with ACHN renal it was greater than 100 µM; with COLO 205 colon, greater than 100 µM; in the assay on HCT-15 colon it was 48.9 µM; in the assay on K-562 leukemia, greater than 100 µM; in the assay with SF-295 CNS, greater than 100 µM. Besides, the TGI with UACC-257 melanoma was greater than 100 µM.

With `CCCCCCCC/C=C1\CCC(CN(C)C)C1=O` (stereo not drawn), the TGI with A498 renal amounted to 30.7 µM; in the assay on ACHN renal, 18.7 µM; with COLO 205 colon it was 14.8 µM; with HCT-15 colon, 7.5 µM; in the assay on K-562 leukemia, 7.2 µM; in the assay on RPMI-8226 leukemia, 0.763 µM. In addition, the TGI with SF-295 CNS is 18 µM; in the assay on UACC-257 melanoma, 16.8 µM.

Consider `CCOc1ccccc1N=Nc1ccc2oc(=O)c(C(C)=O)cc2c1`, for which the TGI with A498 renal, in the assay on COLO 205 colon, in the assay with HCT-15 colon, in the assay on K-562 leukemia, with RPMI-8226 leukemia and in the assay on SF-295 CNS was greater than 100 µM throughout. The TGI with UACC-257 melanoma was greater than 100 µM.

For the molecule `Nc1nncc2c1c(Br)cn2C1OC(CO)C(O)C1O` (stereo not drawn), the TGI with A498 renal, with ACHN renal, in the assay with COLO 205 colon, in the assay with HCT-15 colon, in the assay with K-562 leukemia and in the assay with RPMI-8226 leukemia was greater than 100 µM in each case. Further, the TGI with SF-295 CNS and in the assay on UACC-257 melanoma was greater than 100 µM throughout.

As for `O=Cc1c[nH]c2c(=O)[nH]cnc12`, the TGI with ACHN renal, in the assay on COLO 205 colon, with HCT-15 colon, with K-562 leukemia, with RPMI-8226 leukemia and with SF-295 CNS was greater than 100 µM in each case. The molecule further registered a TGI in the assay on UACC-257 melanoma greater than 100 µM.

On to `CO/C(N)=C(\C#N)N=Cc1ccc2ccccc2c1`, for which the TGI is greater than 100 µM in the assay on A498 renal; greater than 100 µM in the assay on ACHN renal; 51.8 µM in the assay with COLO 205 colon; 94.6 µM with K-562 leukemia; greater than 100 µM in the assay with PC-3 prostate; greater than 100 µM in the assay on RPMI-8226 leukemia. The TGI with SF-295 CNS is greater than 100 µM; in the assay on UACC-257 melanoma it was 91.3 µM.

With `Nc1nc2c(N)cc(C(F)(F)F)cc2nc1-c1ccccc1`, the TGI with A498 renal, with ACHN renal, in the assay on COLO 205 colon, in the assay with HCT-15 colon, with K-562 leukemia and in the assay on SF-295 CNS was greater than 100 µM each time. The TGI with UACC-257 melanoma was greater than 100 µM.

Regarding `CCOC(=O)c1c2ccc(/C=C/c3ccccn3)ccc-2c(C(=O)OCC)c1N`, the TGI in the assay on A498 renal, in the assay with ACHN renal, in the assay with COLO 205 colon, in the assay on HCT-15 colon, in the assay with K-562 leukemia and in the assay on SF-295 CNS was greater than 100 µM in each case. In the assay on UACC-257 melanoma, the TGI is greater than 100 µM.

In the case of `COC(=O)C1CC2C=CC=CC(=O)C2(C)C1` (stereo not drawn), the TGI in the assay on A498 renal is greater than 100 µM; in the assay on ACHN renal, greater than 100 µM; in the assay with COLO 205 colon it was greater than 100 µM; in the assay on HCT-15 colon it was greater than 100 µM; in the assay with K-562 leukemia, greater than 100 µM; in the assay with RPMI-8226 leukemia, 59.5 µM. Besides, the TGI in the assay on SF-295 CNS and in the assay with UACC-257 melanoma was greater than 100 µM in each case.

Turning to `COc1ccc(N2C(=O)c3c(c4[nH]c5ccccc5c4c4ccc(C(C)(C)C)cc34)C2=O)cc1`, the TGI in the assay on A498 renal is 77.1 µM; with ACHN renal, greater than 100 µM; in the assay with COLO 205 colon, greater than 100 µM; with HCT-15 colon it was greater than 100 µM; with K-562 leukemia it was greater than 100 µM; in the assay with SF-295 CNS, 92.9 µM. Besides, the TGI in the assay with UACC-257 melanoma was greater than 100 µM.

`CC1=C(c2nc3ccccc3s2)C(=O)OC1(C)C`: the TGI in the assay on ACHN renal, with COLO 205 colon, with HCT-15 colon, in the assay with K-562 leukemia, with RPMI-8226 leukemia and with SF-295 CNS was greater than 100 µM throughout. For the same molecule, the TGI in the assay with UACC-257 melanoma is greater than 100 µM.

Regarding `Cc1c(O)c(=O)ccn1CCN`, the TGI in the assay on A498 renal, with ACHN renal, in the assay on COLO 205 colon, in the assay with HCT-15 colon, in the assay on K-562 leukemia and in the assay with RPMI-8226 leukemia was greater than 100 µM each time. Also, the TGI in the assay on UACC-257 melanoma was greater than 100 µM.

Take `CCOC1=C2N=C(C(CC)c3ccccc3F)N=C2C(=O)c2ccccc21` (stereo not drawn): the TGI in the assay with ACHN renal, in the assay on COLO 205 colon, in the assay with HCT-15 colon, in the assay on K-562 leukemia, in the assay with RPMI-8226 leukemia and with SF-295 CNS was greater than 100 µM throughout. Also, in the assay with UACC-257 melanoma, the TGI was greater than 100 µM.

Consider `O=C1[C@@H]2C(c3ccc(Br)cc3)=NO[C@@H]2C(=O)N1c1ccc(Cc2ccc(N3C(=O)[C@H]4C(c5ccc(Br)cc5)=NO[C@H]4C3=O)cc2)cc1`, for which the TGI was > 3.48 µM and 16.2 µM in the assay with A498 renal; greater than 40 µM in the assay on ACHN renal; greater than 40 µM in the assay on COLO 205 colon; greater than 40 µM with HCT-15 colon; greater than 40 µM in the assay with K-562 leukemia; greater than 40 µM in the assay on RPMI-8226 leukemia. Moreover, the TGI is greater than 3.48 µM in the assay on SF-295 CNS and greater than 40 µM in the assay on UACC-257 melanoma. The GI50 in the assay with COLO 205 colon, in the assay on K-562 leukemia, with RPMI-8226 leukemia and in the assay on UACC-257 melanoma was greater than 40 µM throughout.

On to `N#CC(NNC(=O)Cc1ccccc1)c1cccc(O)c1` (stereo not drawn), for which the TGI in the assay with ACHN renal, in the assay on COLO 205 colon, in the assay on HCT-15 colon, in the assay on K-562 leukemia, with RPMI-8226 leukemia and in the assay on SF-295 CNS was greater than 100 µM each time. In the assay on UACC-257 melanoma, the TGI is greater than 100 µM.
